“Also recorded” adds a separate entry of the source. Where two headings read alike, the source gives them in different places. Non-standard residues stand in square brackets, D forms with d. Residues, ends and D or L forms follow the SMILES beside them. NMeR = CN[C@@H](CCCNC(=N)N)C(=O)O
Legend:
BALB/c mice = experiment: Acute toxicity in mice, single injection; type: in vivo
Description: (§1) The study was conducted in 82 BALB/c mice (both males and females, body weight 18-24 g) obtained from the animal facility of the Scientific Center for Biomedical Technologies of the Federal Medico-Biological Agency of the Russian Federation (SCBMT). The animals were certified and otherwise healthy. The animals were kept in T-3 cages (5-10 animals per cage) with artificial 12 hrs light-dark cycles and 16× per hour forced air ventilation, temperature of 20-22° C. and 50-65% humidity on wood chips sterilized by hot air. The animals had free access to drinking water and PK-120-1 mouse cubes (GOST P50258-92; Laboratorsnab LLC, Russia).
(§2) PIK2 and PIK7 peptides were dissolved in water and administered to mice as a single intraperitoneal injection. The animals were followed for 14 days after peptide injections. An increasing dosage scheme was applied where each tested dose surpassed the previous dose by 50%. The lowest dose of the active substance was determined that caused animal death.

[1] = Acute toxicity in mice, single injection; type: in vivo; settings: mouse, in vivo
Description: as §1, §2

[2] = rabbit, in vivo, iv
Description: (§3) PIK2 dose of 5 mg/kg was calculated individually for each rabbit and administered into marginal ear vein in a final volume of 1.7-1.9 mL in sterile physiological saline. Stock concentration of the tested substance was 10 mg/mL.
(§4) During the 24-hrs testing period, the overall health status and behavior were monitored (appetite, motion activity, hair coat condition).
(§5) Before injection of test substances (baseline) and 4 hrs and 24 hrs after the injection, the following parameters were tested in whole venous blood samples (3.0-3.5 mL) collected from a marginal ear vein red blood cell (RBC) count, hematocrit, hemoglobin level, mean RBC volume, mean corpuscular hemoglobin, total leukocyte, lymphocyte, and granulocyte counts and their percentages, platelet count, and mean platelet volume. In parallel, the following biochemical parameters were measured in serum total protein, bilirubin, urea, creatinine, glucose, total cholesterol, triglycerides, and activities of alkaline phosphatase, lactate dehydrogenase, aspartate aminotransferase, and alanine aminotransferase. Blood cell count was performed using an Abacus junior vet (Austria) hematological cell counter; biochemical studies were performed using a Targa-2000 (Italy) instrument.

lung edema in rats = settings: cited from earlier work
[3] = test system: endothelial hyperpermeability; settings: cited from earlier work
in vivo = settings: male, Chinchilla, rabbit, 5 mg/kg
Description: as §3, §4, §5

[4] = cited from earlier work
[5] = test system: EA.hy926 endothelial cell monolayer; experiment: Thrombin-mediated FITC-dextran permeability through endothelial cell monolayer; type: cell-based; settings: peptide 100 μM, 60 min preincubation; thrombin 100 nM; 70 kDa FITC-dextran
Description: FIG. 3. The thrombin-mediated FITC-dextran permeability through the EA.hy926 endothelial cell monolayer in the presence of myosin light chain kinase peptide inhibitors. Thrombin (100 nM) was added at 0 min, the cells were preincubated for 60 min with MLCK peptide inhibitors (100 μM). Data are presented as mean±SD, n=5. p<0.05 for all data points within the 20-180 min time course range as compared to the thrombin-stimulated control.
Effects of the claimed peptide (PIK7), the prototype (PIK2), and the analogue (MLC11-19) on the endothelial permeability was assayed in a model of FITC-dextran diffusion through the endothelial monolayer as described in Example 3.
Cells were grown in 24-well plates (Greiner Bio-one, Austria) equipped with special inserts to form inner (upper) chambers with a porous bottom (the pore diameter of 0.4 μm, pore density of 10^8/cm^2) in DMEM until monolayer was formed (3-4 days). Successful monolayer was checked by measuring FITC-dextran diffusion for 1 hour through inserts with cell monolayers vs inserts without cells (‘blank’ inserts). Experiments were performed in triplicates when tight monolayers were formed. On the day of experiment, the cells were deprived for 1 h in DMEM supplemented with MLCK inhibitors or without inhibitors (control). After deprivation, FITC-dextran was added to the upper compartment to a final concentration of 0.05 mg/ml. In 30 and 60 min, a 10-μ1 aliquot was withdrawn from the lower compartment and mixed with 100 μl phosphate buffered saline pH 7.3 in a 96-well plate to estimate the endothelial monolayer baseline permeability. […] During the next 3 hrs, every 30 min, aliquots were taken from the lower compartment, and intensity of FITC fluorescence was measured using a Victor 3X plate reader (Perkin Elmer, USA) to plot the dynamics of the FITC fluorescence changes.
As shown, 100 nM thrombin induces the endothelial hyperpermeability response as reflected by an increase in 70 kDa FITC-dextran diffusion through the endothelial monolayer and an incremental increase in the fluorescence in the lower compartment of the diffusion chamber. […]

Chinchilla rabbits = experiment: Tolerance of a single intravenous injection in Chinchilla rabbits; settings: i.v. 5 mg/kg
Description: as §3, §4, §5

[6] = target: smooth-muscle myosin light-chain kinase; settings: Hunt et al., 1989; cited from earlier work
[7] = test system: MLC phosphorylation in neutrophils; settings: Chilcoat et al., 2008; cited from earlier work
[8] = Peptide half-lives in human plasma in vitro (1H-NMR spectroscopy); type: in vitro ADME; settings: human, plasma, 1H-NMR, 37° C., peptide 3 mg/ml; read-out: T1/2, half-life in human plasma in vitro
Description: Whole blood (100 mL) was collected from healthy donors to 50-mL tubes containing 5 mL of a preservative (130 mM citrate in phosphate buffered saline (PBS), pH 7.4). The blood was incubated for 15-20 min at room temperature followed by centrifugation at 1500 g for 15 min at 18° C. The supernatants were transferred to clear tubes and centrifuged as above. Dry NaBr was added to the plasma (280 mg per 1 mL of plasma). After dissolution of NaBr, the plasma (approx. 30 mL) was transferred to centrifuge tubes (Type 45Ti rotor, Beckman, USA) and layered with 20 mL of a solution (specific mass of […]), which was prepared as follows—11.42 g of NaCl and 100 mg of ethylenediaminetetraacetic acid (EDTA) were dissolved in distilled water in a final volume of 1 L (pH 7.4) and 281.44 g of NaBr was added. The plasma was centrifuged at 40,000 rpm for 48 hrs. The upper dark-yellow fraction containing lipoproteins and the colorless buffer fraction were discarded leaving approx. 1-cm high buffer above the apparent plasma border. Portions of plasma obtained from one donor were pooled and dialyzed for 36 hrs against 4 L of PSB free of Ca^2+ and Mg^2+(MP Biomedicals, USA) in dialysis bags with 12-14 kDa pore sizes. The dialysis procedure was repeated twice with fresh buffer changed every 24 hrs. After the dialysis, the plasma was centrifuged at 25,000 rpm (Type 45Ti rotor, Beckman, USA) for 15 min at 4° C. The supernatant fraction was collected and lyophilized. The dry matter was dissolved in D2O in a final volume equal to the plasma volume before NaBr was added, lyophilized again, dissolved in the same volume of D2O, and stored in 1-mL aliquots at −20° C. before use.
^1H-NMR spectroscopy was employed to analyze relative degradation of PIK7 (the claimed peptide) and MLC11-19 (the structural analogue) in human plasma. ^1H-NMR spectroscopy allows simultaneous direct monitoring the amounts of original full-length peptide and its fragments during the course of enzymatic hydrolysis (Isakova et al., 1986). Stability of a peptide, its degradation pathway(s) and a half-life estimate are available from a comparison of spectra obtained at different time points after the addition of a peptide to plasma. ^1H-NMR spectra were obtained using a WM-500 spectrometer (Bruker, Germany) at 37° C. Chemical shifts in ^1H-NMR spectra were measured relative to an internal standard (2,2-dimethyl-2-silapentane-5-sulfonate sodium salt). The signals were referenced by the double-resonance method. The resonances from peptide protons were identified by the differential spectroscopy method, i.e. the spectrum of blood plasma was subtracted from each spectrum obtained in the presence of peptide of interest. Peptide concentrations were 3 mg/ml.
These indicate the peptide N-terminus degradation. […] Therefore, the claimed peptide has an increased life-span in plasma that allows for long-lasting maintenance of its effective concentrations necessary to decrease the endothelial hyperpermeability under emergency conditions. Moreover, an increased life-time allows attaining the desired therapeutic effect with lower (as compared to homologues) peptide concentrations.

MLCK = MLCK (Homo sapiens, UniProt Q15746); settings: in vitro; Sekridova et al., 2010 / RU 2402565; cited from earlier work

## CN[C@@H](CCCNC(=N)N)C(=O)N[C@@H](CCCCN)C(=O)N[C@@H](CCCCN)C(=O)N[C@@H](Cc1ccc(O)cc1)C(=O)N[C@@H](CCCCN)C(=O)N[C@@H](Cc1ccc(O)cc1)C(=O)N[C@@H](CCCNC(=N)N)C(=O)N[C@H](CCCNC(=N)N)C(=O)N[C@@H](CCCCN)C(N)=O [PIK2, H—(N—Me)-Arg^1-Lys-Lys-Tyr-Lys-Tyr-Arg^7-D-Arg^8-Lys-NH2] (H-[NMeR]KKYKYR[dR]K-NH2)
BALB/c mice; BALB/c mice, single intraperitoneal injection, followed 14 days
  lowest dose of the active substance that caused animal death: 27 mg/kg
BALB/c mice; mice, single intraperitoneal injection of a toxic dose
  signs after a toxic dose: movement retardation and death within the following 24 hrs
[1]; both sexes, BALB/c, intraperitoneal, mice, Table 3
  LD50 at 14 days: 18 mg/kg
[1]; after single intravenous injection (as printed in b7), read-out: LD50 in mice
  LD50: 18 mg/kg
[2]
  LD50: ≤ 5 mg/kg
Lung edema in rats
  effect on endothelial hyperpermeability response and lung edema: abrogation of the endothelial hyperpermeability response and lung edema in rats
[3]; peptide 20 μM
  effect on thrombin-mediated endothelial hyperpermeability in vitro: completely abolished the thrombin-mediated endothelial hyperpermeability
In vivo
  LD50 at 24 h: 5 mg/kg
[4]; Khapchaev et al., 2016
  T1/2, half-life in human plasma in vitro: >540 min
[4]; RU 2493164
  stability, fold higher as compared to PIK1: 4 fold
[5]
  effect on thrombin-induced FITC-dextran hyperpermeability: completely abolished the FITC-dextran hyperpermeability; also recorded: effectively abolished FITC-dextran hyperpermeability
Chinchilla rabbits; group of 4
  mortality: two rabbits died on the 7th and 10th minute
Chinchilla rabbits; second minute after injection
  clinical signs after injection: irregular breathing, shortness of breath, muscular stiffness, prone position with straighten extremities

## H-D-Lys-Lys-Arg-Ala-Ala-Arg-NH2 (H-[dK]KRAAR-NH2; SMILES C[C@H](NC(=O)[C@H](C)NC(=O)[C@H](CCCNC(=N)N)NC(=O)[C@H](CCCCN)NC(=O)[C@H](N)CCCCN)C(=O)N[C@@H](CCCNC(=N)N)C(N)=O) [RLC 11-16 hexapeptide with N-terminal L-Lys substituted with D-Lys]
[6]
  IC50: 180 µM

## H-KKRAARATS-NH2 [MLC11-19, H-Lys-Lys-Arg-Ala-Ala-Arg-Ala-Thr-Ser-NH2]
[7]
  effect on MLC phosphorylation in neutrophils: decreases MLC phosphorylation in neutrophils
[8]
  half-life: 32 min
[5]
  effect on thrombin-induced FITC-dextran hyperpermeability: completely abolished the FITC-dextran hyperpermeability; also recorded: effectively abolished FITC-dextran hyperpermeability

## H-L-Lys-Lys-Arg-Ala-Ala-Arg-NH2 (H-KKRAAR-NH2)
[6]
  IC50: 22 µM

## H-MeArg^1-Lys-Lys-Tyr-Lys-Tyr-Arg-Arg-Lys-NH2 (H-[NMeR]KKYKYRRK-NH2) [PIK1, L-PIK modified at the N-terminal amino acid]
[3]; peptide 100 μM
  inhibition of thrombin-mediated endothelial hyperpermeability: 1.6 fold
[4]; RU 2402565
  half-life in human plasma in vitro, fold higher as compared to L-PIK: ~3 fold
MLCK
  inhibitory activity compared to L-PIK: comparable to that of L-PIK
